Experimental data published in PMC6270326, “The Novel [4,5-e][1,3]Diazepine-4,8-dione and Acyclic Carbamoyl Imino-Ureido Derivatives of Imidazole: Synthesis, Anti-Viral and Anti-Tumor Activity Evaluations” (Molecules, 2013).

What was measured:
[1] = test system: SW620 (colorectal adenocarcinoma, metastatic); experiment: Proliferation assay (MTT), SW620; format: cell-based; settings: Homo sapiens, SW-620, 72 h incubation, read-out: Tumor cell growth IC50, SW620
Protocol: (§1) The cell lines HeLa (cervical carcinoma), SW620 (colorectal adenocarcinoma, metastatic), MCF-7 (breast epithelial adenocarcinoma, metastatic), HepG2 (hepatocellular carcinoma) and BJ (normal diploid human fibroblasts), were cultured as monolayers and maintained in Dulbecco’s modified Eagle medium (DMEM) supplemented with 10% fetal bovine serum (FBS), 2 mM L-glutamine, 100 U/mL penicillin and 100 μg/mL streptomycin in a humidified atmosphere with 5% CO2 at 37 °C.
(§2) The panel cell lines were inoculated onto a series of standard 96-well microtiter plates on day 0, at 3,000 to 5,000 cells per well according to the doubling times of specific cell line. Test agents were then added in 10-fold dilutions (0,01 to 100 µM) and incubated for further 72 h. Working dilutions were freshly prepared on the day of testing in the growth medium. The solvent (DMSO) was also tested for eventual inhibitory activity by adjusting its concentration to be the same as in the working concentrations (DMSO concentration never exceeded 0.1%). After 72 h of incubation, the cell growth rate was evaluated by performing the MTT assay: experimentally determined absorbance values were transformed into a cell percentage growth (PG) using the formulas proposed by NIH and described previously. This method directly relies on control of untreated cells at the day of substances addition because it compares the growth of treated cells with the growth of untreated cells in control wells on the same plate—the results are therefore a percentile difference from the calculated expected value. […] If, however, all of the tested concentrations produce PGs exceeding the respective reference level of effect (e.g., PG value of 50) for a given cell line, the highest tested concentration is assigned as the default value (in the screening data report that default value is preceded by a “>” sign). Each test point was performed in quadruplicate in three individual experiments. The results were statistically analyzed (ANOVA, Tukey post-hoc test at p < 0.05). Finally, the effects of the tested substances were evaluated by plotting the mean percentage growth for each cell type in comparison to control on dose response graphs.

[2] = test system: HepG2 (hepatocellular carcinoma); experiment: Proliferation assay (MTT), HepG2; format: cell-based; settings: Homo sapiens, 72 h incubation, read-out: Tumor cell growth IC50, HepG2
Protocol: as §1, §2

[3] = test system: MCF-7 (breast epithelial adenocarcinoma, metastatic); experiment: Proliferation assay (MTT), MCF-7; format: cell-based; settings: Homo sapiens, MCF7, 72 h incubation, read-out: Tumor cell growth IC50, MCF-7
Protocol: as §1, §2

[4] = test system: HeLa (cervical carcinoma); experiment: Proliferation assay (MTT), HeLa; format: cell-based; settings: Homo sapiens, 72 h incubation, read-out: Tumor cell growth IC50, HeLa
Protocol: as §1, §2

[5] = test system: BJ (normal diploid human fibroblasts); experiment: Proliferation assay (MTT), BJ normal fibroblasts; format: cell-based; settings: for Cytotoxicity on human normal fibroblasts (BJ): in words; for IC50: Fibroblast, BJ normal human skin fibroblasts, 72 h incubation, MTT, read-out: Cell growth IC50, BJ
Protocol: as §1, §2

[6] = test system: HeLa, SW620, MCF-7, HepG2 and BJ cell lines; experiment: Proliferation assay (MTT), whole panel of cell lines; format: cell-based, human; settings: in words
Protocol: as §1
The panel cell lines were inoculated onto a series of standard 96-well microtiter plates on day 0, at 3,000 to 5,000 cells per well according to the doubling times of specific cell line. Test agents were then added in 10-fold dilutions (0,01 to 100 µM) and incubated for further 72 h. […] After 72 h of incubation, the cell growth rate was evaluated by performing the MTT assay: experimentally determined absorbance values were transformed into a cell percentage growth (PG) using the formulas proposed by NIH and described previously. This method directly relies on control of untreated cells at the day of substances addition because it compares the growth of treated cells with the growth of untreated cells in control wells on the same plate—the results are therefore a percentile difference from the calculated expected value. […] The results were statistically analyzed (ANOVA, Tukey post-hoc test at p < 0.05). […]

| IC50 [1] | IC50 [2] | IC50 [3] | IC50 [4] | melting point | SMILES | Cytotoxicity on human normal fibroblasts (BJ) [5] | IC50 [5] | Antiproliferative effect on tested cell lines [6] |
| --- | --- | --- | --- | --- | --- | --- | --- | --- |
| > 100 µM | > 100 µM | > 100 µM | > 100 µM | 205 to 210 °C | CN(C)CCCn1cnc(C(N)=O)c1C(N)=O [Compound 8, 1-(3-Dimethylamino-propyl)-1H-imidazole-4,5-dicarboxylic acid diamide] |  | > 100 µM |  |
| > 100 µM | > 100 µM | > 100 µM | > 100 µM | > 300 °C | N=c1[nH]c(=O)c2ncn(CCN3CCOCC3)c2c(=O)[nH]1 [Compound 9, 6-Imino-1-(2-morpholin-4-yl-ethyl)-6,7-dihydro-1H,5H-1,3,5,7-tetraaza-azulene-4,8-dione] |  | > 100 µM |  |
| 31 µM | 41 µM | > 100 µM | 31 µM | > 300 °C | N=c1[nH]c(=O)c2ncn(CCN3CCCCC3)c2c(=O)[nH]1 [Compound 10, 6-Imino-1-(2-piperidin-1-yl-ethyl)-6,7-dihydro-1H,5H-1,3,5,7-tetraaza-azulene-4,8-dione] |  | > 100 µM | moderate non-selective antiproliferative activity |
| 20 µM | > 100 µM | > 100 µM | > 100 µM |  | N=c1[nH]c(=O)c2ncn(CCN3CCCC3)c2c(=O)[nH]1 [Compound 11, 6-Imino-1-(2-pyrrolidin-1-yl-ethyl)-6,7-dihydro-1H,5H-1,3,5,7-tetraaza-azulene-4,8-dione] |  | > 100 µM |  |
| > 100 µM | > 100 µM | > 100 µM | > 100 µM | > 164 °C | COC(=O)c1ncn(CCN2CCOCC2)c1C(=O)NC(=N)NC(=O)Nc1ccccc1F [Compound 12, 5-({[3-(2-Fluoro-phenyl)-ureido]-imino-methyl}-carbamoyl)-1-(2-morpholin-4-yl-ethyl)-1H-imidazole-4-carboxylic acid methyl ester] |  | > 100 µM |  |

The next lines start with the molecule.

| SMILES | IC50 [1] | IC50 [2] | IC50 [3] | IC50 [4] | melting point | Cytotoxicity on human normal fibroblasts (BJ) [5] | IC50 [5] | Antiproliferative effect on tested cell lines [6] |
| --- | --- | --- | --- | --- | --- | --- | --- | --- |
| COC(=O)c1ncn(CCN2CCOCC2)c1C(=O)OC [Compound 1, 1-(2-Morpholin-4-yl-ethyl)-1H-imidazole-4,5-dicarboxylic acid dimethyl ester] | > 100 µM | > 100 µM | > 100 µM | 24 µM |  | no concomitant cytotoxic effects | > 100 µM |  |
| COC(=O)c1ncn(CCN2CCCCC2)c1C(=O)OC [Compound 2, 1-(2-Piperidin-1-yl-ethyl)-1H-imidazole-4,5-dicarboxylic acid dimethyl ester] | > 100 µM | > 100 µM | > 100 µM | > 100 µM |  |  | > 100 µM |  |
| COC(=O)c1ncn(CCN2CCCC2)c1C(=O)OC [Compound 3, 1-(2-Pyrrolidin-1-yl-ethyl)-1H-imidazole-4,5-dicarboxylic acid dimethyl ester] | > 100 µM | > 100 µM | > 100 µM | 9.5 µM |  | no apparent cytotoxicity | > 100 µM |  |
| COC(=O)c1ncn(CCCN(C)C)c1C(=O)OC [Compound 4, 1-(3-Dimethylamino-propyl)-1H-imidazole-4,5-dicarboxylic acid dimethyl ester] | > 100 µM | > 100 µM | > 100 µM | > 100 µM |  |  | > 100 µM |  |
| NC(=O)c1ncn(CCN2CCOCC2)c1C(N)=O [Compound 5, 1-(2-Morpholin-4-yl-ethyl)-1H-imidazole-4,5-dicarboxylic acid diamide] | > 100 µM | > 100 µM | > 100 µM | 32 µM | 196 to 197 °C | no concomitant cytotoxic effects | > 100 µM |  |
| NC(=O)c1ncn(CCN2CCCCC2)c1C(N)=O [Compound 6, 1-(2-Piperidin-1-il-etil)-1H-imidazol-4,5-diamide] | > 100 µM | > 100 µM | > 100 µM | > 100 µM | 200 to 201 °C |  | > 100 µM |  |
